Structures can show the parent of a compound that is named as a salt.
Legend:
[1] = target: T1, human adenosine A2A receptor (Homo sapiens, UniProt P29274); test: Human adenosine A2A receptor [3H]-SCH-58261 binding assay (SPA); settings: recombinant receptor in CHO cell membranes; [3H]-SCH-58261 1 nM; Ki by Cheng-Prussoff; read-out: hA2 (pKi) (converted)
T1 construct: expressed in transfected cells; host or cells: CHO cells, semliki forest virus expression system; membrane preparation
Description: Human Adenosine A2A Receptor
(§1) The human adenosine A2A receptor was recombinantly expressed in Chinese hamster ovary (CHO) cells using the semliki forest virus expression system. Cells were harvested, washed twice by centrifugation, homogenized and again washed by centrifugation. The final washed membrane pellet was suspended in a Tris (50 mM) buffer containing 120 mM NaCl, 5 mM KCl, 2 mM CaCl2 and 10 mM MgCl2 (pH 7.4) (buffer A). The [^3H]-SCH-58261 (Dionisotti et al., 1997, Br J Pharmacol 121, 353; 1 nM) binding assay was carried out in 96-well plates in the presence of 2.5 μg of membrane protein, 0.5 mg of Ysi-poly-1-lysine SPA beads and 0.1 U adenosine deaminase in a final volume of 200 μl of buffer A. Non-specific binding was defined using xanthine amine congener (XAC; 2 μM). Compounds were tested at 10 concentrations from 10 μM-0.3 nM. All assays were conducted in duplic and repeated at least two times. Assay plates were incubated for hour at room temperature before centrifugation and then bound ligand determined using a Packard Topcount scintillation counter. IC50 values were calculated using a non-linear curve fitting program and Ki values calculated using the Cheng-Prussoff equation.

[2] = target: T2, human adenosine A1 receptor (Homo sapiens, UniProt P30542); test: Human adenosine A1 receptor [3H]-DPCPX binding assay (SPA); settings: recombinant receptor in CHO cell membranes; [3H]-DPCPX 0.6 nM; Ki by Cheng-Prussoff; read-out: hA1 (pKi) (converted)
T2 construct: expressed in transfected cells; host or cells: CHO cells, semliki forest virus expression system; membrane preparation
T2 sequence (P30542 1-326): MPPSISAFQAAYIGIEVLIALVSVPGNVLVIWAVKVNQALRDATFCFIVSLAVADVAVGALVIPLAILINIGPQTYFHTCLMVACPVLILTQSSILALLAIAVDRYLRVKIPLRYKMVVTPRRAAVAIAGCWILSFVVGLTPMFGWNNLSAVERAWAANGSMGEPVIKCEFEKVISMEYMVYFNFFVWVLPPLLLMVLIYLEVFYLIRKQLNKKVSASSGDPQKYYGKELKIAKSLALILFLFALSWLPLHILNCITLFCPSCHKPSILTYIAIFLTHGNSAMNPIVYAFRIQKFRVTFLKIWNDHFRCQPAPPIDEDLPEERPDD
Description: Human Adenosine A1 receptor
as §1, with “human adenosine A1 receptor was” for “human adenosine A2A receptor was”, “A). The [^3H]-DPCPX (([propyl-^3H]8-cyclopentyl-1,3-dipropyxanthine); 0.6 nM) binding” for “A). The [^3H]-SCH-58261 (Dionisotti et al., 1997, Br J Pharmacol 121, 353; 1 nM) binding”, “from 10 μM–0.3 nM. All” for “from 10 μM-0.3 nM. All”, “conducted in duplicate and repeated” for “conducted in duplic and repeated”, “incubated for 1 hour at” for “incubated for hour at”

T1 sequence (P29274 whole entry): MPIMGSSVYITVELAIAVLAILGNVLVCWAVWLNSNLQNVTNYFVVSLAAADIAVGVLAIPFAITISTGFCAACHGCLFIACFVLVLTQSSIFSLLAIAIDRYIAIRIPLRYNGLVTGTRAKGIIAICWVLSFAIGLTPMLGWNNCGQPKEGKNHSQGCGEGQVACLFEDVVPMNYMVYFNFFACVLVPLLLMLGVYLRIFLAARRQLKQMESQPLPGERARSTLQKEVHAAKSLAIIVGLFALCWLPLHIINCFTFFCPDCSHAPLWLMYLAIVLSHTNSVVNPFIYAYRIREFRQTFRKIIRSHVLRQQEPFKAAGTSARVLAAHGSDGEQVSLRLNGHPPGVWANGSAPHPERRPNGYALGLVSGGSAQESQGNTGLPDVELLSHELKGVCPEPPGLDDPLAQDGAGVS

| SMILES | melting point [°C] | Ki [1] [nM] | Ki [2] [nM] |
| --- | --- | --- | --- |
| COc1ccc(N2CCOCC2)c2sc(-c3nc4c([nH]3)CCNCC4)nc12.Cl | 267 to 269 | – | – |
| COc1ccc(N2CCOCC2)c2sc(-c3nc4c([nH]3)CCNC4)nc12.Cl | 268 to 271 | – | – |
| COc1ccc(N2CCOCC2)c2sc(-c3nc(-c4cccs4)c[nH]3)nc12 (as salt: ammonium) [Example 18, 4-Methoxy-7-morpholin-4-yl-2-(4-thiophen-2-yl-1H-imidazol-2-yl)-benzothiazole] | 165 | – | – |
| COc1ccc(N2CCOCC2)c2sc(-c3nc(-c4ccsc4)c[nH]3)nc12 (as salt: ammonium) [Example 19, 4-Methoxy-7-morpholin-4-yl-2-(4-thiophen-3-yl-1H-imidazol-2-yl)-benzothiazole] | 170 | – | – |
| COc1ccc(N2CCOCC2)c2sc(-c3nc(Cc4cccs4)c[nH]3)nc12 (as salt: ammonium) [Example 21, 4-Methoxy-7-morpholin-4-yl-2-(4-thiophen-2-ylmethyl-1H-imidazol-2-yl)-benzothiazole] | 165 | – | – |
| COc1ccc(N2CCOCC2)c2sc(-c3nc4c([nH]3)CCCC4)nc12 (as salt: ammonium) [Example 22, 4-Methoxy-7-morpholin-4-yl-2-(4,5,6,7-tetrahydro-1H-benzoimidazol-2-yl)-benzothiazole] | 165 | – | – |
| COc1ccc(N2CCOCC2)c2sc(-c3ncc[nH]3)nc12 [Example 1, 2-(1H-Imidazol-2-yl)-4-methoxy-7-morpholin-4-yl-benzothiazole] | – | 12.6 | 1000 |
| COc1ccc(N2CCOCC2)c2sc(-c3nc4ccccc4[nH]3)nc12 [Example 2, 2-(1H-Benzoimidazol-2-yl)-4-methoxy-7-morpholin-4-yl-benzothiazole] | 284 to 286 | 0.501 | 158 |
| COc1ccc(N2CCOCC2)c2sc(-c3nc4ccccc4n3C)nc12 [Example 3, 4-Methoxy-2-(1-methyl-1H-benzoimidazol-2-yl)-7-morpholin-4-yl-benzothiazole] | 283 to 285 | 100 | – |
| COc1ccc(-c2ccccc2)c2sc(-c3ncc[nH]3)nc12 [Example 4, 2-(1H-Imidazol-2-yl)-4-methoxy-7-phenyl-benzothiazole] | 205 to 206 | 5.01 | 200 |
| COc1ccc(N2CCOCC2)c2sc(-c3nc4ccc(Cl)nc4[nH]3)nc12 [Example 6, 5-Chloro-2-(4-methoxy-7-morpholin-4-yl-benzothiazol-2-yl)-3H-imidazo[4,5-b]pyridine] | – | 3.16 | – |
| COCn1c(-c2nc3c(OC)ccc(N4CCOCC4)c3s2)nc2ccc(Cl)nc21 [Example 7, 5-Chloro-3-methoxymethyl-2-(4-methoxy-7-morpholin-4-yl-benzothiazol-2-yl)-3H-imidazo[4,5-b]pyridine] | 167 to 170 | – | – |
| COc1ccc(N2CCOCC2)c2sc(-c3nc4ccc(N5CCOCC5)nc4[nH]3)nc12 [Example 9, 2-(4-Methoxy-7-morpholin-4-yl-benzothiazol-2-yl)-5-morpholin-4-yl-3H-imidazo[4,5-b]pyridine] | – | 2.51 | – |
| COc1ccc(N2CCOCC2)c2sc(-c3nc4ccc(N(C)CC5CCOCC5)nc4[nH]3)nc12 [Example 14, [2-(4-Methoxy-7-morpholin-4-yl-benzothiazol-2-yl)-3H-imidazo[4,5-b]pyridin-5-yl]-methyl-(tetrahydro-pyran-4-ylmethyl)-amine] | – | 3.16 | 2510 |
| COc1ccc(N2CCOCC2)c2sc(-c3nc(-c4ccccc4)c[nH]3)nc12 [Example 15, 4-Methoxy-7-morpholin-4-yl-2-(4-phenyl-1H-imidazol-2-yl)-benzothiazole] | 226 to 233 | – | – |
| COc1ccc(N2CCOCC2)c2sc(-c3nc(-c4ccc5c(c4)OCCO5)c[nH]3)nc12 [Example 16, 2-[4-(2,3-Dihydro-benzo[1,4]dioxin-6-yl)-1H-imidazol-2-yl]-4-methoxy-7-morpholin-4-yl-benzothiazole] | 235 to 237 | – | – |
| COc1ccc(N2CCOCC2)c2sc(-c3ncc(-c4csc5ccccc45)[nH]3)nc12 [Example 17, 2-(5-Benzo[b]thiophen-3-yl-1H-imidazol-2-yl)-4-methoxy-7-morpholin-4-yl-benzothiazole] | 161 to 162 | – | – |
| COc1ccc(N2CCOCC2)c2sc(-c3ncc(-c4sc5ccccc5c4C)[nH]3)nc12 [Example 20, 4-Methoxy-2-[5-(3-methyl-benzo[b]thiophen-2-yl)-1H-imidazol-2-yl]-7-morpholin-4-yl-benzothiazole] | 213 to 215 | 50.1 | – |
| COc1ccc(N2CCOCC2)c2sc(-c3nc4c([nH]3)CCCC4)nc12 [Example 22, 4-Methoxy-7-morpholin-4-yl-2-(4,5,6,7-tetrahydro-1H-benzoimidazol-2-yl)-benzothiazole] | – | 2.51 | 794 |
| COc1ccc(N2CCOCC2)c2sc(-c3nc4c([nH]3)COCC4)nc12 [Example 23, 2-(4-Methoxy-7-morpholin-4-yl-benzothiazol-2-yl)-3,4,6,7-tetrahydro-pyrano[3,4-d]imidazole] | 203 to 204 | 1.26 | 398 |
| COc1ccc(N2CCOCC2)c2sc(-c3nc4c([nH]3)CCN(C(=O)OC(C)(C)C)CC4)nc12 [Example 24, 2-(4-Methoxy-7-morpholin-4-yl-benzothiazol-2-yl)-4,5,7,8-tetrahydro-1H-imidazo[4,5-d]azepine-6-carboxylic acid tert-butyl ester] | 142 to 144 | – | – |
| COc1ccc(N2CCOCC2)c2sc(-c3nc4c([nH]3)CCN(C(=O)c3ccc(F)cc3)CC4)nc12 [Example 26, (4-Fluoro-phenyl)-[2-(4-methoxy-7-morpholin-4-yl-benzothiazol-2-yl)-4,5,7,8-tetrahydro-1H-imidazo[4,5-d]azepin-6-yl]-methanone] | 205 to 207 | 1 | 631 |
| COc1ccc(N2CCOCC2)c2sc(-c3nc4c([nH]3)CCN(C(C)=O)CC4)nc12 [Example 27, 1-[2-(4-Methoxy-7-morpholin-4-yl-benzothiazol-2-yl)-4,5,7,8-tetrahydro-1H-imidazo[4,5-d]azepin-6-yl]-ethanone] | 195 to 197 | – | – |
| COc1ccc(N2CCOCC2)c2sc(-c3nc4c([nH]3)CCN(C(=O)c3ccccc3C)CC4)nc12 [Example 28, [2-(4-Methoxy-7-morpholin-4-yl-benzothiazol-2-yl)-4,5,7,8-tetrahydro-1H-imidazo[4,5-d]azepin-6-yl]-o-tolyl-methanone] | 194 to 196 | 1.26 | 1580 |
| COc1ccc(N2CCOCC2)c2sc(-c3nc4c([nH]3)CCN(C(=O)C3CC3)CC4)nc12 [Example 30, Cyclopropyl-[2-(4-methoxy-7-morpholin-4-yl-benzothiazol-2-yl)-4,5,7,8-tetrahydro-1H-imidazo[4,5-d]azepin-6-yl]-methanone] | – | 1.58 | 1260 |
| COc1ccc(N2CCOCC2)c2sc(-c3nc4c([nH]3)CCN(C(C)=O)C4)nc12 [Example 39, 1-[2-(4-Methoxy-7-morpholin-4-yl-benzothiazol-2-yl)-1,4,6,7-tetrahydro-imidazo[4,5-c]pyridin-5-yl]-ethanone] | 155 to 157 | – | – |
| COc1ccc(C2CCOCC2)c2sc(-c3ncc[nH]3)nc12 [Example 45, 2-(1H-Imidazol-2-yl)-4-methoxy-7-(tetrahydro-pyran-4-yl)-benzothiazole] | 220 to 224 | – | – |
| COc1ccc(N2CCOCC2)c2sc(-c3nc4c([nH]3)CCN(CC(N)=O)CC4)nc12 [Example 46, 2-[2-(4-Methoxy-7-morpholin-4-yl-benzothiazol-2-yl)-4,5,7,8-tetrahydro-1H-imidazo[4,5-d]azepin-6-yl]-acetamide] | 299 to 302 | – | – |
